What all share (type): physicochemical
The nature of series [1]: Chemical stability (HPLC and visual inspection after storage). The note with it: for HPLC Sum of impurities: in % (unit assumed); for chemical stability: storage 2, 4 and 8 weeks under different conditions. The procedure: In the chemical stability test program the salts are stored for periods of 2, 4 and 8 weeks under different conditions. These conditions are 40° C./75% RH, 50° C., daylight, RT/5% RH, RT/75% RH, 25° C./60% RH and artificial light. The mandelate salt and the ditoluoyltartrate salt are also stored 8 hours in 0.3 da ICH light. The compounds are analyzed after storage by HPLC and by visual inspection.

Series [2] is described as follows: Crystallographic stability (TGA, DSC, IR after storage). On IR: key: ~Ref: identical with reference. The note with it: for crystallographic stability: storage two weeks under different relative humidities. The procedure:
The stability of the crystal structure of the salt is studied after storage of the compounds for a period of two weeks at room temperature (RT) under either 5%, 75% and 25° C./60% relative humidity (RH). The samples are analyzed with thermogravimetry (TGA), differential scanning calorimetry (DSC) and infrared spectroscopy (IR).

Series [3] is described as follows: Adsorption and desorption of water. The note with it: 25° C., different relative humidity. The procedure: The adsorption and desorption of water at 25° C. at different conditions of relative humidity is investigated on an amount of ±10 mg of each salt. The weight change as a function of relative humidity is registered.
[4] abbreviates: 0.3 da ICH light (2 weeks column; text: 8 hours).

Entries after “also recorded” stand apart in the source; their conditions may differ.

Regarding “B-(2α,3aα,12bβ)-11-fluoro-3,3a,8,12b-tetrahydro-N-methyl-2H-dibenzo-[3,4:6,7]cyclohepta[1,2-b]furan-2 methanamine [Citrate]”, the Appearance entry in series [1] (40° C./75% RH, 2 weeks) is “liquefied”; in series [1] (40° C./75% RH, 4 weeks), “liquefied”; in series [1] (40° C./75% RH, 8 weeks), “liquefied”; in series [1] (50° C., 2 weeks), “ochre-”; in series [1] (50° C., 4 weeks), “ochre-”; in series [1] (50° C., 8 weeks), “orange-”. Moreover, the Appearance result in series [1] (Artificial light (2 weeks)) is on record as “ochre-”; in series [1] (Daylight, 2 weeks), “ochre-”; in series [1] (Daylight, 4 weeks), “ochre-”; in series [1] (Daylight, 8 weeks) it was “orange-”; in series [1] (RT/75% RH, 4 weeks), “liquefied”; in series [1] (RT/75% RH, 8 weeks), “liquefied”. For the same compound, the Appearance result in series [1] (Reference (2 weeks)) was “yellow”; in series [2] (0 days), “yellowish”; in series [2] (two weeks, RT/75% RH), “liquefied”. Besides, the “HPLC Sum of impurities” value in series [1] (40° C./75% RH, 2 weeks) is on record as 4.83; in series [1] (40° C./75% RH, 4 weeks) it was 7.91; in series [1] (40° C./75% RH, 8 weeks) it was 10.62; in series [1] (50° C., 2 weeks) it was 6.29; in series [1] (50° C., 4 weeks), 7.47; in series [1] (50° C., 8 weeks) it was 9.07. Also, the “HPLC Sum of impurities” value in series [1] (Artificial light (2 weeks)) came to 8.99; in series [1] (Daylight, 2 weeks), 5.81; in series [1] (Daylight, 4 weeks), 5.99; in series [1] (Daylight, 8 weeks), 6.31; in series [1] (RT/75% RH, 4 weeks), 4.69; in series [1] (RT/75% RH, 8 weeks), 4.98. Moreover, the “HPLC Sum of impurities” value in series [1] (Reference (2 weeks)) stood at 4.76. Also, in series [1] (listed as citrate salt), the chemical stability entry is listed as “shows degradation in all investigated conditions; also recorded: chemically not stable”. Further, the “DSC Max” value in series [2] (0 days) is on record as “amorphous”. For the same compound, the crystallographic stability result in series [2] (listed as citrate salt) was “amorphous and liquefies at RT/75% RH”. The “water adsorption/desorption behaviour (weight change as a function of relative humidity)” value in series [3] (listed as citrate salt) is “hygroscopic and liquefies at high relative humidity”.
For the compound `CNCC1CC2c3ccccc3Cc3ccc(F)cc3C2O1.O=C(O)C(O)c1ccccc1` (single isomer, unassigned) [Compound 1, B-(2α,3aα,12bβ)-11-fluoro-3,3a,8,12b-tetrahydro-N-methyl-2H-dibenzo-[3,4:6,7]cyclohepta[1,2-b]furan-2 methanamine], the Appearance entry is recorded as “white” in series [1] (setting [4]); “white” in series [1] (25° C./60% RH, 4 weeks); “white” in series [1] (25° C./60% RH, 8 weeks); “white” in series [1] (40° C./75% RH, 2 weeks); “white” in series [1] (40° C./75% RH, 4 weeks); “white” in series [1] (40° C./75% RH, 8 weeks). Further, the Appearance result in series [1] (50° C., 2 weeks) was “white”; in series [1] (50° C., 4 weeks), “white”; in series [1] (50° C., 8 weeks), “white”; in series [1] (Artificial light (2 weeks)), “white”; in series [1] (Daylight, 2 weeks) it was “white”; in series [1] (Daylight, 4 weeks), “white”. Moreover, the Appearance entry is “white” in series [1] (Daylight, 8 weeks); “white” in series [1] (RT/75% RH, 4 weeks); “white” in series [1] (RT/75% RH, 8 weeks); “white” in series [1] (RT/<5% RH, 4 weeks); “white” in series [1] (RT/<5% RH, 8 weeks); “white” in series [1] (Reference (2 weeks)). The Appearance entry is reported as “white” in series [2] (0 days); “white” in series [2] (two weeks, 25° C./60% RH); “white” in series [2] (two weeks, RT/75% RH); “white” in series [2] (two weeks, RT/<5% RH). Moreover, the “HPLC Sum of impurities” value in series [1] (setting [4]) stood at 1.70; in series [1] (25° C./60% RH, 4 weeks), 1.71; in series [1] (25° C./60% RH, 8 weeks) it was 1.69; in series [1] (40° C./75% RH, 2 weeks), 1.73; in series [1] (40° C./75% RH, 4 weeks) it was 1.73; in series [1] (40° C./75% RH, 8 weeks) it was 1.70. In addition, the “HPLC Sum of impurities” value turned out to be 1.74 in series [1] (50° C., 2 weeks); 1.75 in series [1] (50° C., 4 weeks); 1.70 in series [1] (50° C., 8 weeks); 1.70 in series [1] (Artificial light (2 weeks)); 1.73 in series [1] (Daylight, 2 weeks); 1.71 in series [1] (Daylight, 4 weeks). For the same compound, the “HPLC Sum of impurities” value is listed as 1.72 in series [1] (Daylight, 8 weeks); 1.75 in series [1] (RT/75% RH, 4 weeks); 1.76 in series [1] (RT/75% RH, 8 weeks); 1.73 in series [1] (RT/<5% RH, 4 weeks); 1.72 in series [1] (RT/<5% RH, 8 weeks); 1.72 in series [1] (Reference (2 weeks)). The chemical stability entry in series [1] (listed as mandelate salt) was “chemically stable in all investigated conditions; also recorded: crystallographically and chemically stable”. For the same compound, the “DSC Max” value in series [2] (0 days) turned out to be 229.5 °C; in series [2] (two weeks, 25° C./60% RH), 229.1 °C; in series [2] (two weeks, RT/75% RH), 229.4 °C; in series [2] (two weeks, RT/<5% RH) it was 229.1 °C. Moreover, the “DSC ΔH” value in series [2] (0 days) worked out at 141.1 J/g; in series [2] (two weeks, 25° C./60% RH), 139.0 J/g; in series [2] (two weeks, RT/75% RH), 137.6 J/g; in series [2] (two weeks, RT/<5% RH) it was 140.2 J/g. Moreover, the TGA <100° C. in series [2] (0 days) was 0.1%; in series [2] (two weeks, 25° C./60% RH), 0.1%; in series [2] (two weeks, RT/75% RH), 0.1%; in series [2] (two weeks, RT/<5% RH), 0.1%. In addition, the crystallographic stability result in series [2] (listed as mandelate salt) was “crystallographically and chemically stable”; in series [2] (listed as mandelic acid salt), “crystallographic stable”. Moreover, the IR entry was “~Ref” in series [2] (two weeks, 25° C./60% RH); “~Ref” in series [2] (two weeks, RT/75% RH); “~Ref” in series [2] (two weeks, RT/<5% RH). Besides, in series [3] (listed as mandelate salt), the “water adsorption/desorption behaviour (weight change as a function of relative humidity)” value was “stable towards moisture uptake over the whole range of humidity; also recorded: good adsorption/desorption profile”.
Regarding `CNCC1CC2c3ccccc3Cc3ccc(F)cc3C2O1.O=C(O)CCC(=O)O` (single isomer, unassigned) [succinate salt, B-(2α,3aα,12bβ)-11-fluoro-3,3a,8,12b-tetrahydro-N-methyl-2H-dibenzo-[3,4:6,7]cyclohepta[1,2-b]furan-2 methanamine], the “water adsorption/desorption behaviour (weight change as a function of relative humidity)” value in series [3] is “less stable but the weight change as a function of the relative humidity is very small”.
As to `CNCC1CC2c3ccccc3Cc3ccc(F)cc3C2O1.O=C(O)CC(=O)O` (single isomer, unassigned) [malonate salt, B-(2α,3aα,12bβ)-11-fluoro-3,3a,8,12b-tetrahydro-N-methyl-2H-dibenzo-[3,4:6,7]cyclohepta[1,2-b]furan-2 methanamine], the “water adsorption/desorption behaviour (weight change as a function of relative humidity)” value in series [3] is reported as “less stable but the weight change as a function of the relative humidity is very small”.
